Data reported in ChEMBL document CHEMBL1140388, “Privileged structure-based ligands for melanocortin receptors-tetrahydroquinolines, indoles, and aminotetralines” (Bioorg Med Chem Lett, 2005).

Tests used:
Melanocortin receptor 4 = Melanocortin receptor 4 (Homo sapiens, UniProt P32245); assay: Inhibition of [125I]-NDP MSH binding towards human melanocortin 4 receptor
[1] = target: Melanocortin receptor (M3 and M4) (Homo sapiens) (UniProt P32245+P41968); assay: Binding selectivity across hMC 4 and hMC 3 by determining the competitive inhibition of [125 I]NDP MSH binding; type: protein assay
Melanocortin receptor 3 = Melanocortin receptor 3 (Homo sapiens, UniProt P41968); assay: Inhibition of [125I]-NDP MSH binding towards human melanocortin 3 receptor
Melanocortin receptor 3, sequence (P41968 whole entry): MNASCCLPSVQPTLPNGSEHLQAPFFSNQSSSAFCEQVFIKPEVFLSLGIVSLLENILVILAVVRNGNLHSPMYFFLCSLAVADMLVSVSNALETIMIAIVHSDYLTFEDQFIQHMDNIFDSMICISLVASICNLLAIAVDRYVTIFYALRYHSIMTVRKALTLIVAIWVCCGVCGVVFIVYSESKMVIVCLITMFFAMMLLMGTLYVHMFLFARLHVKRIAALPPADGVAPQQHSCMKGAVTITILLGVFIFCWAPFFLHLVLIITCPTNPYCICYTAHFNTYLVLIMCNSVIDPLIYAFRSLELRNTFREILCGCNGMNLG

[2] = target: Melanocortin receptor (M4 and M5) (Homo sapiens) (UniProt P32245+P33032); assay: Binding selectivity across hMC 4 and hMC 5 by determining the competitive inhibition of [125 I]NDP MSH binding; type: protein assay
Melanocortin receptor (M4 and M5) (Homo sapiens), sequence (P32245 whole entry, looked up): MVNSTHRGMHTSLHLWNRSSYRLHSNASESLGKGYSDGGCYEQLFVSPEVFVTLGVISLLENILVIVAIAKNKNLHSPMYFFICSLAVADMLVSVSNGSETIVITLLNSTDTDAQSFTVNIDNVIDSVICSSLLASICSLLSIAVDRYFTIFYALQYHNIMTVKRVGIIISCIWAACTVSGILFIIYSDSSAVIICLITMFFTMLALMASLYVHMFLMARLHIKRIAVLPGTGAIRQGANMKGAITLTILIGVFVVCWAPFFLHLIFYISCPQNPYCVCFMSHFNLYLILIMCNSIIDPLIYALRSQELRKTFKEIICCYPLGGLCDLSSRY
Melanocortin receptor (M4 and M5) (Homo sapiens), sequence (P33032 whole entry, looked up): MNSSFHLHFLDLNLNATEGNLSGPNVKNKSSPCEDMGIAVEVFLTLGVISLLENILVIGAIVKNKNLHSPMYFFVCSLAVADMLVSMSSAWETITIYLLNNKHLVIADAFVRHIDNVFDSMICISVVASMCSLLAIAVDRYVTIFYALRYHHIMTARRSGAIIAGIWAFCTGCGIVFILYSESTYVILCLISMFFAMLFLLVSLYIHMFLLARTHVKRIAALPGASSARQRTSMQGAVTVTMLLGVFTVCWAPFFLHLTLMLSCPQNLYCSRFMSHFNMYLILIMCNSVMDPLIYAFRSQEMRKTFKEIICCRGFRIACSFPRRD

[3] = target: Melanocortin receptor (M1 and M4) (Homo sapiens) (UniProt P32245+Q01726); assay: Binding selectivity across hMC 4 and hMC 1 by determining the competitive inhibition of [125 I]NDP MSH binding; type: protein assay
Melanocortin receptor 5 = Melanocortin receptor 5 (Homo sapiens, UniProt P33032); assay: Inhibition of [125I]-NDP MSH binding towards human melanocortin 5 receptor
Melanocortin receptor 5, sequence (P33032 whole entry): as the sequence (P33032 whole entry, looked up) above

[4] = target: Melanocyte-stimulating hormone receptor (Homo sapiens, UniProt Q01726); assay: Inhibition of [125I]-NDP MSH binding towards human melanocortin 1 receptor
Melanocyte-stimulating hormone receptor, sequence (Q01726 whole entry): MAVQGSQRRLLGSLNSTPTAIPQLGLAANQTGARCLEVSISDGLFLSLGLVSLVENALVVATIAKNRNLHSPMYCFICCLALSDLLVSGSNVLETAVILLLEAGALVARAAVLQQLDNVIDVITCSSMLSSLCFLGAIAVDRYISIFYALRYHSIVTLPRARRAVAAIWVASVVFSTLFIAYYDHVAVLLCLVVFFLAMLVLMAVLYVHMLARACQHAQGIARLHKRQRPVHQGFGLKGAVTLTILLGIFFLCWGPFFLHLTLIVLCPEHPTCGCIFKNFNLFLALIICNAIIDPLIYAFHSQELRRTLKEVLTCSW

Melanocortin receptor 4, sequence (P32245 whole entry): as the sequence (P32245 whole entry, looked up) above

O=C(N[C@H](Cc1ccc(Cl)cc1)C(=O)N1CCN(c2cccc3cc[nH]c23)CC1)[C@H]1Cc2ccccc2CN1
Ki (Melanocortin receptor 4): 4800 nM

CCCN(CCC)C1CCc2cccc(N3CCN(C(=O)[C@@H](Cc4ccc(Cl)cc4)NC(=O)[C@H]4Cc5ccccc5CN4)CC3)c2C1 (stereo partly drawn)
Ki (Melanocortin receptor 4): 180 nM

NC1CCc2cccc(N3CCN(C(=O)[C@@H](Cc4ccc(Cl)cc4)NC(=O)[C@H]4Cc5ccccc5CN4)CC3)c2C1 (stereo partly drawn)
Ki (Melanocortin receptor 4): 240 nM

CN(C1CCc2cccc(N3CCN(C(=O)[C@@H](Cc4ccc(Cl)cc4)NC(=O)[C@H]4Cc5ccccc5CN4)CC3)c2C1)S(C)(=O)=O (stereo partly drawn)
Ki (Melanocortin receptor 4): 530 nM

CN(C)[C@H]1CCc2cccc(N3CCN(C(=O)[C@@H](Cc4ccc(Cl)cc4)NC(=O)[C@H]4Cc5ccccc5CN4)CC3)c2C1
Ki (Melanocortin receptor 4): 50 nM

CS(=O)(=O)N1CCCc2cccc(N3CCN(C(=O)C(Cc4ccc(Cl)cc4)NC(=O)[C@H]4Cc5ccccc5CN4)CC3)c21 (stereo partly drawn)
Ki (Melanocortin receptor 4): 900 nM

CC(=O)N1CCCc2cccc(N3CCN(C(=O)[C@@H](Cc4ccc(Cl)cc4)NC(=O)[C@H]4Cc5ccccc5CN4)CC3)c21
Ki (Melanocortin receptor 4): 7700 nM | Binding selectivity [1]: 0.6 | Ki (Melanocortin receptor 3): 500 nM | Binding selectivity [2]: 5 | Binding selectivity [3]: 23 | Ki (Melanocortin receptor 5): 4000 nM | Ki [4]: 20000 nM

CCN1CCc2c(cccc2N2CCN(C(=O)[C@@H](Cc3ccc(Cl)cc3)NC(=O)[C@H]3Cc4ccccc4CN3)CC2)C1
Ki (Melanocortin receptor 4): 700 nM

CCN(CC)C1CCc2cccc(N3CCN(C(=O)[C@@H](Cc4ccc(Cl)cc4)NC(=O)[C@H]4Cc5ccccc5CN4)CC3)c2C1 (stereo partly drawn)
Ki (Melanocortin receptor 4): 170 nM

O=C(N[C@H](Cc1ccc(Cl)cc1)C(=O)N1CCN(c2cccc3c2CN(S(=O)(=O)c2ccccc2)CC3)CC1)[C@H]1Cc2ccccc2CN1
Ki (Melanocortin receptor 4): 2500 nM | Binding selectivity [1]: 4 | Ki (Melanocortin receptor 3): 1200 nM | Binding selectivity [2]: 2.6 | Binding selectivity [3]: 23 | Ki (Melanocortin receptor 5): 700 nM | Ki [4]: 7000 nM

O=C(N[C@H](Cc1ccc(Cl)cc1)C(=O)N1CCN(c2cccc3c2NCC3)CC1)[C@H]1Cc2ccccc2CN1
Ki (Melanocortin receptor 4): 2100 nM

CN(C)C1CCc2cccc(N3CCN(C(=O)[C@@H](Cc4ccc(Cl)cc4)NC(=O)[C@H]4Cc5ccccc5CN4)CC3)c2C1 (stereo partly drawn)
Ki (Melanocortin receptor 4): 70 nM | Binding selectivity [1]: 164 | Ki (Melanocortin receptor 3): 8200 nM | Binding selectivity [2]: 5.6 | Binding selectivity [3]: 72 | Ki (Melanocortin receptor 5): 280 nM | Ki [4]: 4000 nM

CCN1CCc2cccc(N3CCN(C(=O)[C@@H](Cc4ccc(Cl)cc4)NC(=O)[C@H]4Cc5ccccc5CN4)CC3)c2C1
Ki (Melanocortin receptor 4): 190 nM

CN1CCc2cccc(N3CCN(C(=O)[C@@H](Cc4ccc(Cl)cc4)NC(=O)[C@H]4Cc5ccccc5CN4)CC3)c2C1
Ki (Melanocortin receptor 4): 280 nM

CNC1CCc2cccc(N3CCN(C(=O)[C@@H](Cc4ccc(Cl)cc4)NC(=O)[C@H]4Cc5ccccc5CN4)CC3)c2C1 (stereo partly drawn)
Ki (Melanocortin receptor 4): 150 nM

CC(=O)N1CCc2cccc(N3CCN(C(=O)[C@@H](Cc4ccc(Cl)cc4)NC(=O)[C@H]4Cc5ccccc5CN4)CC3)c2C1
Ki (Melanocortin receptor 4): 500 nM

O=C(N[C@H](Cc1ccc(Cl)cc1)C(=O)N1CCN(c2cccc3c2NCCC3)CC1)[C@H]1Cc2ccccc2CN1
Ki (Melanocortin receptor 4): 1600 nM

CS(=O)(=O)N1CCc2cccc(N3CCN(C(=O)C(Cc4ccc(Cl)cc4)NC(=O)[C@H]4Cc5ccccc5CN4)CC3)c21 (stereo partly drawn)
Ki (Melanocortin receptor 4): 900 nM

CS(=O)(=O)N1CCc2cccc(N3CCN(C(=O)[C@@H](Cc4ccc(Cl)cc4)NC(=O)[C@H]4Cc5ccccc5CN4)CC3)c2C1
Ki (Melanocortin receptor 4): 600 nM

CC(=O)NC1CCc2cccc(N3CCN(C(=O)[C@@H](Cc4ccc(Cl)cc4)NC(=O)[C@H]4Cc5ccccc5CN4)CC3)c2C1 (stereo partly drawn)
Ki (Melanocortin receptor 4): 410 nM

CN(C)[C@@H]1CCc2cccc(N3CCN(C(=O)[C@@H](Cc4ccc(Cl)cc4)NC(=O)[C@H]4Cc5ccccc5CN4)CC3)c2C1
Ki (Melanocortin receptor 4): 80 nM

CS(=O)(=O)N1CCc2c(cccc2N2CCN(C(=O)[C@@H](Cc3ccc(Cl)cc3)NC(=O)[C@H]3Cc4ccccc4CN3)CC2)C1
Ki (Melanocortin receptor 4): 3900 nM

O=C(N[C@H](Cc1ccc(Cl)cc1)C(=O)N1CCN(c2cccc3c2CCCC3)CC1)[C@H]1Cc2ccccc2CN1
Ki (Melanocortin receptor 4): 4200 nM | Binding selectivity [1]: 181 | Ki (Melanocortin receptor 3): 1200 nM | Binding selectivity [2]: 3.8 | Binding selectivity [3]: 47 | Ki (Melanocortin receptor 5): 260 nM | Ki [4]: 3000 nM

CC(C)S(=O)(=O)N1CCc2cccc(N3CCN(C(=O)[C@@H](Cc4ccc(Cl)cc4)NC(=O)[C@H]4Cc5ccccc5CN4)CC3)c2C1
Ki (Melanocortin receptor 4): 950 nM
